Where “and” joins values, the source holds several entries; their conditions need not be identical. Equal entries are not always repeated.
Organism: Rattus norvegicus
Assay: Open TG-GATES - Regimen: Single
Assay type: toxicity, organism-based, Sprague-Dawley
Design: regimen Single, gender Male, age 6 weeks
Conditions: in vivo, po, 0 mg/kg, route gavage, dose level Control; for APTT / Bas / Eos / Fbg / Hb / Ht / Lym / MCH / MCHC / MCV / Mono / Neu / PT / Plat / RBC / Ret / WBC: tissue Blood; for KIDNEY_L / KIDNEY_R / KIDNEY_TOTAL: tissue Kidney; for LIVER: tissue Liver; for ALP / ALT / AST / BUN / CRE / Ca / Cl / GLC / IP / K / LDH / Na / PL / RALB / TBIL / TC / TP / gamma-GTP: tissue Plasma

O=P1(N(CCCl)CCCl)NCCCO1 (stereo not given) [CYCLOPHOSPHAMIDE ANHYDROUS]
TERMINAL_BW (3 h): 187.8 g and 193 g | APTT (3 h): 22.9 s and 16.1 s | Bas (3 h): 0% and 0.2% | Eos (3 h): 1% and 0.6% | Fbg (3 h): 287.4 mg/dL and 271.4 mg/dL | Hb (3 h): 13.1 g/dL and 13.4 g/dL | Ht (3 h): 39.1% and 39.6% | Lym (3 h): 84% and 75.6% | MCH (3 h): 21.3 pg and 21 pg | MCHC (3 h): 33.5% and 33.7% | MCV (3 h): 63.6 fL and 62.4 fL | Mono (3 h): 1.6% and 3.2% | Neu (3 h): 12.8% and 20.2% | PT (3 h): 15.9 s and 13.8 s | Plat (3 h): 124.4 x10_4/uL and 125.2 x10_4/uL | RBC (3 h): 614.8 x10_4/ul and 636 x10_4/ul | Ret (3 h): 8.6% and 9.1% | WBC (3 h): 75.9 x10_2/uL and 115.3 x10_2/uL | KIDNEY_L (3 h): 0.9 g | KIDNEY_R (3 h): 0.8 g | KIDNEY_TOTAL (3 h): 1.7 g | LIVER (3 h): 8.5 g and 8.2 g | ALP (3 h): 1691.4 IU/L and 1383.8 IU/L | ALT (3 h): 46.4 IU/L and 37.2 IU/L | AST (3 h): 77.8 IU/L and 73.8 IU/L | BUN (3 h): 13.4 mg/dL and 10 mg/dL | CRE (3 h): 0.2 mg/dL | Ca (3 h): 10.6 mg/dL and 11 mg/dL | Cl (3 h): 106.8 meq/L and 105.2 meq/L | GLC (3 h): 188.8 mg/dL and 175.4 mg/dL | IP (3 h): 8.2 mg/dL and 8.4 mg/dL | K (3 h): 3.8 meq/L and 4.6 meq/L | LDH (3 h): 185 IU/L and 66 IU/L | Na (3 h): 144.2 meq/L and 140.4 meq/L | PL (3 h): 135.6 mg/dL and 140.8 mg/dL | RALB (3 h): 2.9 g/dL and 2.4 g/dL | TBIL (3 h): 0.026 mg/dL and 0.066 mg/dL | TC (3 h): 78.4 mg/dL and 78 mg/dL | TP (3 h): 5.4 g/dL and 5.2 g/dL | gamma-GTP (3 h): 1 IU/L and 1.2 IU/L | TERMINAL_BW (6 h): 190.8 g and 192 g | APTT (6 h): 21.9 s and 18.3 s | Bas (6 h): 0% | Eos (6 h): 0.6% and 1% | Fbg (6 h): 286 mg/dL and 280.6 mg/dL | Hb (6 h): 13.3 g/dL and 12.8 g/dL | Ht (6 h): 39.8% and 38.3% | Lym (6 h): 78.6% and 76.6% | MCH (6 h): 21.1 pg and 20.7 pg | MCHC (6 h): 33.5% | MCV (6 h): 63.1 fL and 61.8 fL | Mono (6 h): 2% | Neu (6 h): 17.8% and 20.2% | PT (6 h): 16.4 s and 14 s | Plat (6 h): 122.5 x10_4/uL and 115 x10_4/uL | RBC (6 h): 630.6 x10_4/ul and 620.2 x10_4/ul | Ret (6 h): 8.1% and 8.5% | WBC (6 h): 102.3 x10_2/uL and 90.1 x10_2/uL | KIDNEY_L (6 h): 0.9 g and 0.8 g | KIDNEY_R (6 h): 0.9 g and 0.8 g | KIDNEY_TOTAL (6 h): 1.7 g | LIVER (6 h): 8.1 g | ALP (6 h): 1329.6 IU/L and 1641.8 IU/L | ALT (6 h): 38.8 IU/L and 34.4 IU/L | AST (6 h): 66.8 IU/L and 71.4 IU/L | BUN (6 h): 10.8 mg/dL and 10 mg/dL | CRE (6 h): 0.1 mg/dL and 0.2 mg/dL | Ca (6 h): 10.6 mg/dL and 11 mg/dL | Cl (6 h): 106 meq/L and 106.2 meq/L | GLC (6 h): 185.2 mg/dL and 174.8 mg/dL | IP (6 h): 8.9 mg/dL and 9 mg/dL | K (6 h): 4.2 meq/L and 4.3 meq/L | LDH (6 h): 166.8 IU/L and 60.6 IU/L | Na (6 h): 143.4 meq/L and 142.4 meq/L | PL (6 h): 134.2 mg/dL and 136.8 mg/dL | RALB (6 h): 2.8 g/dL and 2.5 g/dL | TBIL (6 h): 0.032 mg/dL and 0.068 mg/dL | TC (6 h): 75.8 mg/dL and 74.2 mg/dL | TP (6 h): 5.4 g/dL and 5.3 g/dL | gamma-GTP (6 h): 1 IU/L | TERMINAL_BW (9 h): 186.5 g and 187.9 g | APTT (9 h): 20.3 s and 17.4 s | Bas (9 h): 0% | Eos (9 h): 0.6% and 1% | Fbg (9 h): 300.4 mg/dL and 291.4 mg/dL | Hb (9 h): 13 g/dL and 12.7 g/dL | Ht (9 h): 38.9% and 38.1% | Lym (9 h): 80.8% and 75.6% | MCH (9 h): 21.1 pg and 20.6 pg | MCHC (9 h): 33.5% and 33.3% | MCV (9 h): 62.9 fL and 61.8 fL | Mono (9 h): 1.8% | Neu (9 h): 16.4% and 20.8% | PT (9 h): 16.6 s and 13.9 s | Plat (9 h): 120.1 x10_4/uL and 120.7 x10_4/uL | RBC (9 h): 619.4 x10_4/ul and 616.6 x10_4/ul | Ret (9 h): 7.8% and 8.3% | WBC (9 h): 78.2 x10_2/uL and 80.1 x10_2/uL | KIDNEY_L (9 h): 0.9 g and 0.8 g | KIDNEY_R (9 h): 0.9 g and 0.8 g | KIDNEY_TOTAL (9 h): 1.8 g and 1.6 g | LIVER (9 h): 7.7 g and 7.1 g | ALP (9 h): 1482.2 IU/L and 1393 IU/L | ALT (9 h): 37.6 IU/L and 35 IU/L | AST (9 h): 69 IU/L and 73.8 IU/L | BUN (9 h): 10.4 mg/dL and 7.4 mg/dL | CRE (9 h): 0.1 mg/dL and 0.2 mg/dL | Ca (9 h): 10.4 mg/dL and 10.7 mg/dL | Cl (9 h): 106 meq/L and 106.4 meq/L | GLC (9 h): 178.6 mg/dL and 161 mg/dL | IP (9 h): 9.7 mg/dL and 9.3 mg/dL | K (9 h): 3.8 meq/L and 4.2 meq/L | Na (9 h): 143 meq/L and 141.8 meq/L | PL (9 h): 126.6 mg/dL and 131.6 mg/dL | RALB (9 h): 3 g/dL and 2.5 g/dL | TBIL (9 h): 0.034 mg/dL and 0.072 mg/dL | TC (9 h): 72.6 mg/dL and 78 mg/dL | TP (9 h): 5.4 g/dL and 5.3 g/dL | gamma-GTP (9 h): 1 IU/L and 1.6 IU/L | TERMINAL_BW (24 h): 205 g and 201 g | APTT (24 h): 21 s and 17.8 s | Bas (24 h): 0% | Eos (24 h): 0.6% and 1.2% | Fbg (24 h): 300.2 mg/dL and 289 mg/dL | Hb (24 h): 13.1 g/dL and 13.5 g/dL | Ht (24 h): 39.3% and 40.6% | Lym (24 h): 81.8% and 74.6% | MCH (24 h): 21.4 pg and 20.6 pg | MCHC (24 h): 33.3% and 33.4% | MCV (24 h): 64.2 fL and 61.7 fL | Mono (24 h): 2.2% and 3% | Neu (24 h): 15.2% and 21% | PT (24 h): 16.5 s and 14 s | Plat (24 h): 120.5 x10_4/uL and 107.8 x10_4/uL | RBC (24 h): 612.4 x10_4/ul and 658.4 x10_4/ul | Ret (24 h): 7.8% and 7.5% | WBC (24 h): 90.3 x10_2/uL and 86.9 x10_2/uL | KIDNEY_L (24 h): 0.9 g | KIDNEY_R (24 h): 0.9 g and 0.8 g | KIDNEY_TOTAL (24 h): 1.9 g and 1.7 g

Reference: ChEMBL document CHEMBL3885861, “Open TG-GATES”
